Measurements reported in PMC7663263 (Molecules, 2020).
Where two headings read alike, the source gives them in different places.

What was measured:
[1] = test system: L. major; conditions: read-out: IC50 against L. major; cited from earlier work
[2] = test system: L. amazonensis; conditions: read-out: IC50 against L. amazonensis; cited from earlier work
[3] = test system: Human TrxR; conditions: 2 nM enzyme, 3 mM DTNB; steady state kinetic studies; read-out: IC50 Human TrxR, substrate DTNB; cited from earlier work
[4] = test system: S. mansoni; design: method as in PMID 17579510; conditions: after multiple doses; cited from earlier work
[5] = target: L. infantum TR; conditions: read-out: Ki L. infantum TR, substrate TS2; 40 nM enzyme, 50–400 µM TS2; steady state; cited from earlier work
[6] = target: human thioredoxin reductase (TrxR); design: method as in PMID 9685351; conditions: cited from earlier work
[7] = test system: Human GR; conditions: 1.5 nM enzyme, 1 mM GSSG; steady state kinetic studies; read-out: IC50 Human GR, substrate GSSG; cited from earlier work
[8] = target: B. pahangi TrxR; experiment: B. pahangi TrxR enzyme assay, DTNB reduction (original data); assay type: biochemical, Brugia pahangi; conditions: 20 nM enzyme, 3 mM DTNB; after 15 min preincubation; read-out: IC50 B. pahangi TrxR, substrate DTNB (original data)
Method: Enzymes were prepared in E. coli as described. Assays were performed at 25 °C in 0.1 M potassium phosphate (pH 7.4), 10 mM EDTA using 100 μM NADPH and 3 mM dithiobis(2-nitrobenzoic acid) (DTNB). […] The increase in A412 during the first 3 min was recorded upon DTNB addition. The reaction was done in triplicate.

[9] = target: Human TrxR; design: method as in PMID 9685351; conditions: 1.7 nM enzyme, steady state kinetic studies, read-out: Ki Human TrxR, substrate E. coli TrxS2, cited from earlier work
[10] = test system: mitochondrial TrxR2; design: method as in PMID 15458826; conditions: 2 nM enzyme, 3 mM DTNB; steady state; read-out: IC50 TrxR, substrate DTNB (mitochondrial TrxR2 instead of cytosolic TrxR1); cited from earlier work
[11] = target: T1, S. mansoni TGR (Schistosoma mansoni, UniProt Q962Y6); design: method as in PMID 17579510; conditions: 20 nM enzyme, 3 mM DTNB; after 15 min preincubation; read-out: IC50 S. mansoni TGR, substrate DTNB; cited from earlier work
T1 construct: made in house; host or cells: E. coli
T1 sequence (Q962Y6 1-598): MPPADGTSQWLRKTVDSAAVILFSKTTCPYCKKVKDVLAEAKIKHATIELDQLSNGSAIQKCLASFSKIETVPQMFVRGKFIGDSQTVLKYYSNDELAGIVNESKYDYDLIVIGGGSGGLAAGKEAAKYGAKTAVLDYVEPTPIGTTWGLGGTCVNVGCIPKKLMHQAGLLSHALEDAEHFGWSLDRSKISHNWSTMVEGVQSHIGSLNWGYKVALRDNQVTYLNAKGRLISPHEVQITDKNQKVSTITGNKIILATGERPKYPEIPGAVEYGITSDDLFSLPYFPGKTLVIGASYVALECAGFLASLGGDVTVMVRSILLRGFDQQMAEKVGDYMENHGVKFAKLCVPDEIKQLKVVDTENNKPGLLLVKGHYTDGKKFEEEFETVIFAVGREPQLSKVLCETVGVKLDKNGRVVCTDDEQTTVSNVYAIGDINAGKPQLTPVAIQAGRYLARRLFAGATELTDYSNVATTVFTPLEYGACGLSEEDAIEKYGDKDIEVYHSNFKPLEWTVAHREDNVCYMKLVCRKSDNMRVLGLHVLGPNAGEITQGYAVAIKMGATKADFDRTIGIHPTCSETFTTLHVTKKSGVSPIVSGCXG

[12] = target: T1, S. mansoni TGR; design: method as in PMID 17579510; conditions: 20 nM enzyme, 100 µM GSSG; after 15 min preincubation; read-out: IC50 S. mansoni TGR, substrate GSSG; cited from earlier work
[13] = target: T1, S. mansoni TGR; design: method as in PMID 17579510; conditions: 20 nM enzyme, 8 mM substrate; after 15 min preincubation; read-out: IC50 S. mansoni TGR, substrate HED + GSSG; cited from earlier work

CC(=O)OC[C@H]1O[C@@H]([S-])[C@H](OC(C)=O)[C@@H](OC(C)=O)[C@@H]1OC(C)=O.CCP(CC)CC.[Au+] [Auranofin]
IC50 [1]: 70 nM | IC50 [2]: 270 nM | IC50 [3]: 20 nM | reduction of worm burdens in S. mansoni infected mice [4]: ~ 60% | Ki [5]: 155 nM | Ki [6]: 4 nM | IC50 [7]: 40000 nM | IC50 [8]: 0.5 nM | Ki ([9]; at 50 TrxS2): 2 nM | Ki ([9]; at 75 TrxS2): 3 nM

O=C(O)CC([S-])C(=O)O.[Au+] (centres unmarked) [Aurothiomalate]
IC50 [10]: 280 nM | IC50 [11]: 90 nM | IC50 [12]: 50 nM | IC50 [13]: 50 nM
